Experimental data reported in patent US5585273A (priority 1994, dated 1996).
Where a SMILES comes first, the peptide text is derived from it. [ ]: non-standard residue; d: D form. The star is where a group is joined. Sta = CC(C)C[C@H](N)[C@@H](O)CC(=O)O; Isovaleryl = CC(C)CC(=O)*

Assays:
[1] = biological target: Candida albicans aspartic protease (Candida albicans, UniProt P0DJ06); conditions: Part II
Protocol: (§1) In the second part, the enzymes are preincubated with their respective inhibitors and appropriate buffers for 15 mins. These are then added to the substrate and incubated at room temp for further 15 mins.
(§2) In both cases, the reaction mixture is centrifuged to remove solid phase conjugate. The supernatant (5 μl) is added to Hemoccult® slides and developed with 5 μl of hydrogen peroxide.

[2] = test system: Candida albicans aspartic protease; conditions: background statement; cited from earlier work
[3] = biological target: T1, Trypsin (serine protease) from bovine pancreas (Bos taurus, UniProt P00760); assay: Inhibition of trypsin-mediated HRPO release (Experiment XV, Part 2); assay type: biochemical; conditions: Part II
T1 construct: purchased U.S. Biochemicals; host or cells: bovine pancreas
Protocol: as §1, §2

[4] = biological target: T2, Papain (thiol protease) from papaya latex (Carica papaya, UniProt P00784); assay: Inhibition of papain-mediated HRPO release (Experiment XV, Part 2); assay type: biochemical; conditions: Part II
T2 construct: purchased Sigma Chemical Co; host or cells: papaya latex
Protocol: as §1, §2

[5] = test system: [POLYMERIC DIALDEHYDE-KAPPA-CASEIN-HRPO] conjugate; conditions: acetate buffer pH 4.0, 15 minutes at room temperature
Protocol: The suspension was incubated at room temperature for 15 minutes and centrifuged to remove the solid phase conjugate. Five microliters of the supernatant were added to a guaiac slide, followed by five microliters of hydrogen peroxide solution.

[6] = test system: [SIGMACELL® 20-KAPPA-CASEIN-HRPO] (HYDRAZIDE METHOD) or [SIGMACELL® 20-MYOGLOBIN/HEMOGLOBIN-HRPO] (ALDEHYDE METHOD); conditions: acetate buffer pH 4.0, 15 minutes at room temperature
Protocol: (§3) 40 mg (wet weight) [Sigmacell® 20-Kappa-Casein-HRPO] conjugate were suspended in 75 microliters acetate buffer, pH 4.0 and 25 microliters of test solution were added. The suspension was incubated at room temperature for 15 minutes and centrifuged to remove the solid phase conjugate. Five microliters of the supernatant were added to a guaiac slide, followed by five microliters of hydrogen peroxide solution.

[7] = test system: [Sigmacell® 20-Hemoglobin-HRPO] (or the myoglobin equivalent) conjugate; conditions: acetate buffer pH 4.0, 15 minutes at room temperature
Protocol: 40 mg (wet weight) [Sigmacell® 20-Hemoglobin-HRPO] (or the myoglobin equivalent) conjugate were suspended in 75 microliters acetate buffer, pH 4.0 and 25 microliters of test solution were added. The suspension was incubated at room temperature for 15 minutes and centrifuged to remove the solid phase conjugate. Five microliters of the supernatant were added to a guaiac slide, followed by five microliters of hydrogen peroxide solution.

[8] = test system: [Chitin-Kappa-Casein-HRPO] conjugate; conditions: acetate buffer pH 4.0, 15 minutes at room temperature
Protocol: 40 mg (wet weight) [Chitin-Kappa-Casein-HRPO] conjugate were suspended in 75 microliters acetate buffer, pH 4.0 and 25 microliters of test solution were added. The suspension was incubated at room temperature for 15 minutes and centfifuged to remove the solid phase conjugate. Five μl of the supernatant were added to a guaiac slide, followed by five microliters of hydrogen peroxide solution.

[9] = test system: [Sigmacell® 20-Kappa-Casein-HRPO] conjugate; conditions: acetate buffer pH 4.0, 15 minutes at room temperature
Protocol: as §3

[10] = test system: [Sepharose-Casein-HRPO] (or the Kappa-Casein equivalent) conjugate; conditions: acetate buffer pH 4.0, 15 minutes at room temperature
Protocol: 40 mg (wet weight) [Sepharose-Casein-HRPO] (or the Kappa-Casein equivalent) conjugate were suspended in 75 microliters acetate buffer, pH 4.0 and 25 microliters of test solution were added. The suspension was incubated at room temperature for 15 minutes and centrifuged to remove the solid phase conjugate. Five microliters of the supernatant were added to a guaiac slide, followed by five microliters of hydrogen peroxide solution.

[11] = test system: [Sepharose-Hemoglobin-HRPO] (or the myoglobin equivalent) conjugate; conditions: acetate buffer pH 4.0, 15 minutes at room temperature
Protocol: 40 mg (wet weight) [Sepharose-Hemoglobin-HRPO] (or the myoglobin equivalent) conjugate were suspended in 75 microliters acetate buffer, pH 4.0 and 25 microliters of test solution were added. The suspension was incubated at room temperature for 15 minutes and centrifuged to remove the solid phase conjugate. Five microliters of the supernatant were added to a guaiac slide, followed by five microliters of hydrogen peroxide solution.

[12] = test system: [Eupergit® C-Myoglobin-HRPO]; assay: Activity of various proteases on Eupergit C-myoglobin-HRPO (Experiment XV); assay type: biochemical; conditions: Part I
Protocol: This assay is set up in two parts. The first is to determine the activity of the different proteases on the substrate [Eupergit® C-Myoglobin-HRPO]. The enzymes and controls (enzymes boiled for 15 min) are incubated with 20 mg of substrate and buffers (see quantities in table below) for 15 minutes prior to assay.

Chain of Candida albicans aspartic protease (Candida albicans, UniProt P0DJ06) (P0DJ06 57-398): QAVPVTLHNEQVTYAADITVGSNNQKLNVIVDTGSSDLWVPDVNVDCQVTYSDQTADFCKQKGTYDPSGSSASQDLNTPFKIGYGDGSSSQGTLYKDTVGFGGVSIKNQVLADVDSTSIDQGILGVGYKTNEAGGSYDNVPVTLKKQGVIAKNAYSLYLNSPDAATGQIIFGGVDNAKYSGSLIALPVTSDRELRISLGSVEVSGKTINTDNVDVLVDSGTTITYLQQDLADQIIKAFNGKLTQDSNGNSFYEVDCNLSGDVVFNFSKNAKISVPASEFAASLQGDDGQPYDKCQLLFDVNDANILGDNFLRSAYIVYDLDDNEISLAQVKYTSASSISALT

Molecule: CC(C)CC(=O)N[C@H](C(=O)N[C@H](C(=O)N[C@@H](CC(C)C)[C@@H](O)CC(=O)N[C@@H](C)C(=O)N[C@@H](CC(C)C)[C@@H](O)CC(=O)O)C(C)C)C(C)C [Pepstatin, Pepstatin A] (Isovaleryl-VV[Sta]A[Sta]-OH)
- inhibition of color formation by aspartic protease [1]: inhibits color formation
- inhibition of Candida albicans aspartic protease [2]: strongly inhibited

Molecule: Cc1ccc(S(=O)(=O)NC(CCCCN)C(=O)CCl)cc1 (stereo not drawn) [TLCK, Tosyl lysine chloromethyl ketone]
- inhibition of color formation by trypsin [3]: inhibits color formation
- inhibition of color formation by papain [4]: inhibits color formation

Molecule: Pepsin
- blue color formation on guaiac impregnated sheet [5]: dark blue color
- blue color formation on guaiac impregnated sheet [6]: dark blue color
- blue color formation on guaiac impregnated sheet [7]: dark blue color
- blue color formation on guaiac impregnated sheet [8]: dark blue color
- blue color formation on guaiac impregnated sheet [9]: dark blue color
- blue color formation on guaiac impregnated sheet [10]: dark blue color
- blue color formation on guaiac impregnated sheet [11]: dark blue color

B1: Papain (boiled): papain boiled for 15 min (control) (protein, UniProt P00784 134-345, looked up)
Papain: IPEYVDWRQKGAVTPVKNQGSCGSCWAFSAVVTIEGIIKIRTGNLNEYSEQELLDCDRRSYGCNGGYPWSALQLVAQYGIHYRNTYPYEGVQRYCRSREKGPYAAKTDGVRQVQPYNEGALLYSIANQPVSVVLEAAGKDFQLYRGGIFVGPCGNKVDHAVAAVGYGPNYILIKNSWGTGWGENGYIRIKRGTGNSYGVCGLYTSSFYPVKN
modifications: heat-denatured
- blue color formation on guaiac slides ([12]; pH 7.4): faintest color detectable

B2: Papain: Papain (thiol protease) from papaya latex (12 units/mg activity), 2 mg/ml (protein, UniProt P00784 134-345, looked up)
Papain: IPEYVDWRQKGAVTPVKNQGSCGSCWAFSAVVTIEGIIKIRTGNLNEYSEQELLDCDRRSYGCNGGYPWSALQLVAQYGIHYRNTYPYEGVQRYCRSREKGPYAAKTDGVRQVQPYNEGALLYSIANQPVSVVLEAAGKDFQLYRGGIFVGPCGNKVDHAVAAVGYGPNYILIKNSWGTGWGENGYIRIKRGTGNSYGVCGLYTSSFYPVKN
- blue color formation on guaiac slides ([12]; pH 7.0): strong blue color

B3: Trypsin (boiled): trypsin boiled for 15 min (control) (protein, UniProt P00760 24-246, looked up)
Serine protease 1: IVGGYTCGANTVPYQVSLNSGYHFCGGSLINSQWVVSAAHCYKSGIQVRLGEDNINVVEGNEQFISASKSIVHPSYNSNTLNNDIMLIKLKSAASLNSRVASISLPTSCASAGTQCLISGWGNTKSSGTSYPDVLKCLKAPILSDSSCKSAYPGQITSNMFCAGYLEGGKDSCQGDSGGPVVCSGKLQGIVSWGSGCAQKNKPGVYTKVCNYVSWIKQTIASN
modifications: heat-denatured
- blue color formation on guaiac slides ([12]; pH 7.4): faintest color detectable

B4: Trypsin: Trypsin (serine protease) from bovine pancreas (2900 units/mg activity), 2 mg/ml (protein, UniProt P00760 24-246, looked up)
Serine protease 1: IVGGYTCGANTVPYQVSLNSGYHFCGGSLINSQWVVSAAHCYKSGIQVRLGEDNINVVEGNEQFISASKSIVHPSYNSNTLNNDIMLIKLKSAASLNSRVASISLPTSCASAGTQCLISGWGNTKSSGTSYPDVLKCLKAPILSDSSCKSAYPGQITSNMFCAGYLEGGKDSCQGDSGGPVVCSGKLQGIVSWGSGCAQKNKPGVYTKVCNYVSWIKQTIASN
- blue color formation on guaiac slides ([12]; pH 7.4): strong blue color
